# Earlier results, collected in patent publication US20250041383A1, “MODIFIED CAVEOLIN-1 PEPTIDES FOR THE TREATMENT OF POST-ACUTE COVID-19” (priority 2021, published 2025).
# Ends that are not written are not given here.
# System: lung
# Settings: treatment with the CSP 20-mer; literature
sequence,measurement,value
"DGIWKASFTTFTVTKYWFYR (not fully specified) [CSP 20-mer, the full-length CSD of caveolin-1, amino acids 82-101]",collagen deposition,reduced
same,expression of profibrogenic signaling molecules,down-regulation
same,lung aSMA,reduced
same,lung epithelial apoptosis,reduced
